pIC50: −log10 of the molar value. Numbered stars: 1 amine (or outer) side, 2 acyl side, 3 side chain; on linkers, the order of the positions; unused ones are H or OH. Square brackets hold non-standard residues; d marks the D form. Peptide text beside a SMILES is read from it. * marks the point of attachment. ξ: configuration not given here. X1 = CCC(=O)C[C@@H](O)C[C@@H](C)C[C@H](N[*:1])C(=O)[*:2]; Alaψ(CH2NMeCH2CH2OH) = C[C@@H](CN(C)CCO)N*; Decanoyl(2R-Me) = CCCCCCCC[C@@H](C)C(=O)*; X2 = CCCCCCC[C@H](O)[C@H](C)C(=O)*; Aib = CC(C)(N)C(=O)O; ξA = CC(N)C(=O)O

For experiment [1], the species on record is Mus musculus. In words: Inhibitory activity against the production of interleukin 4 (IL-4). Format: functional, organism-based.
For experiment [2], the species on record is Mus musculus. In words: Inhibitory activity against the proliferation of lymphocytes in mouse allogenic mixed lymphocyte reaction (MLR). The format is functional, organism-based.

Consider `CCCCCCCC[C@@H](C)C(=O)N1CCC[C@H]1C(=O)N[C@@H](C[C@H](C)C[C@H](O)CC(=O)CC)C(=O)N[C@@H](C)C(=O)NC(C)(C)C(=O)NC(C)(C)C(=O)N[C@H](C(=O)N[C@@H](C)C(=O)NC(C)(C)C(=O)NC(C)C(=O)N[C@@H](C)CN(C)CCO)C(C)C` (stereo partly drawn) ({Decanoyl(2R-Me)}-P[X1]A[Aib][Aib]VA[Aib][ξA]-{Alaψ(CH2NMeCH2CH2OH)}), for which the values for the pIC50 in the experiment filed under Mus musculus [1] and in the experiment listed under Mus musculus [2] were < 6.00 and 7.22, respectively.

For the compound `CCCCCCCC[C@@H](C)C(=O)N1CCC[C@H]1C(=O)N[C@@H](C[C@H](C)C[C@H](O)CC(=O)CC)C(=O)N[C@@H](C)C(=O)NC(C)(C)C(=O)NC(C)(C)C(=O)N[C@H](C(=O)N[C@@H](C)C(=O)NC(C)(C)C(=O)NC(C)C(=O)N[C@@H](C)CN(C)CCO)[C@@H](C)CC` (stereo partly drawn) ({Decanoyl(2R-Me)}-P[X1]A[Aib][Aib]IA[Aib][ξA]-{Alaψ(CH2NMeCH2CH2OH)}), the pIC50 is < 6.00 in the experiment filed under Mus musculus [1] and 7.69 in the experiment filed under Mus musculus [2].

`CCCCCCCC[C@@H](C)C(=O)N1CCC[C@H]1C(=O)N[C@@H](C[C@H](C)C[C@H](O)CC(=O)CC)C(=O)N[C@@H](C)C(=O)NC(C)(C)C(=O)NC(C)(C)C(=O)N[C@H](C(=O)N[C@@H](C)C(=O)NC(C)(C)C(=O)NC(C)(C)C(=O)N[C@@H](C)CN(C)CCO)C(C)C` ({Decanoyl(2R-Me)}-P[X1]A[Aib][Aib]VA[Aib][Aib]-{Alaψ(CH2NMeCH2CH2OH)}): the pIC50 is < 6.00 in the experiment filed under Mus musculus [1] and 7.97 in the experiment listed under Mus musculus [2].

As for `CCCCCCC[C@H](O)[C@H](C)C(=O)N1CCC[C@H]1C(=O)N[C@@H](C[C@H](C)C[C@H](O)CC(=O)CC)C(=O)N[C@@H](C)C(=O)NC(C)(C)C(=O)NC(C)(C)C(=O)N[C@H](C(=O)N[C@@H](C)C(=O)NC(C)(C)C(=O)NC(C)(C)C(=O)N[C@@H](C)CN(C)CCO)[C@@H](C)CC` (X2-P[X1]A[Aib][Aib]IA[Aib][Aib]-{Alaψ(CH2NMeCH2CH2OH)}), the pIC50 in the experiment listed under Mus musculus [1] was < 6.00; in the experiment filed under Mus musculus [2] it was 6.53.

As to `CCCCCCCC[C@@H](C)C(=O)N1CCC[C@H]1C(=O)N[C@@H](C[C@H](C)C[C@H](O)CC(=O)CC)C(=O)N[C@@H](C)C(=O)NC(C)(C)C(=O)NC(C)(C)C(=O)N[C@H](C(=O)N[C@@H](C)C(=O)NC(C)(C)C(=O)NC(C)(C)C(=O)N[C@@H](C)CN(C)CCO)[C@@H](C)CC` ({Decanoyl(2R-Me)}-P[X1]A[Aib][Aib]IA[Aib][Aib]-{Alaψ(CH2NMeCH2CH2OH)}), the pIC50 is < 6.00 in the experiment filed under Mus musculus [1] and 8.28 in the experiment listed under Mus musculus [2].

The record behind these values is ChEMBL document CHEMBL1131904, “Peptidic immunosuppressants from the fungus Trichoderma polysporum” (Bioorg Med Chem Lett, 1999).
